Values after ≈ are worked out from the molar mass of the structure shown. Like-named read-outs stand apart in the source and are kept apart here.

One data set in a line: physchem. The note with it: 25 °C, water, thermodynamic from solid. Here is the method:
Glass vials containing water and excess amount of carvedilol salts were shaken by a mechanical shaker at ambient conditions. Aliquots were taken out at various time-point, filtered through 0.45 μm Acrodisc GHP filter. The pH of the filtered solutions was measured and suitable dilution was performed prior to UV-Vis analysis of carvedilol concentration.

The conditions of data set [1]: cited from earlier work.

`COc1ccccc1OCCNCC(O)COc1cccc2[nH]c3ccccc3c12` (racemic) [Carvedilol Free Base]: in “physchem”, the solubility at 1 h turned out to be 9.8 µg/mL (≈ 24.1 µM) and the solubility at 24 h was 11.6 µg/mL (≈ 28.5 µM). Also, in data set [1] (above pH 9.0), the solubility was < 1 µg/mL. Moreover, the saturation solubility in data set [1] (pH 5, room temperature) is ~100 µg/mL. In addition, the saturation solubility in data set [1] (pH 7, room temperature) was ~23 µg/mL.

As a reminder, the solubility is the concentration that dissolves in the medium under given conditions.

The record behind these values is US20080096951A1 (SB Pharmo Puerto Rico Inc., priority 2002, published 2008).
